Assay results published in the NIST ThermoML archive (doi:10.1016/j.jct.2013.01.006).

Settings: Liquid, Vibrating tube method

FCC(F)(F)F [1,1,1,2-tetrafluoroethane]
Settings	mass density [kg/m3]
283.52 K, 1010 kPa	1262.83
283.53 K, 5000 kPa	1279.7
283.54 K, 10000 kPa	1298.2
283.54 K, 20000 kPa	1329.16
283.54 K, 39990 kPa	1376.78
283.54 K, 60010 kPa	1413.66
283.54 K, 80020 kPa	1444.29
303.26 K, 1000 kPa	1188.74
303.27 K, 5000 kPa	1212.6
303.28 K, 10000 kPa	1237.15
303.29 K, 19980 kPa	1275.91
303.29 K, 40010 kPa	1332.33
303.3 K, 60000 kPa	1374.15
303.3 K, 79980 kPa	1408.2
323.07 K, 1280 kPa	1102.44
323.08 K, 5000 kPa	1136.68
323.08 K, 10000 kPa	1170.98
323.09 K, 20000 kPa	1220.67
323.11 K, 60000 kPa	1335.02
323.11 K, 80000 kPa	1372.84
323.12 K, 40000 kPa	1287.6
343.02 K, 10000 kPa	1097
343.02 K, 20000 kPa	1162.16
343.02 K, 39990 kPa	1241.93
343.02 K, 60010 kPa	1295.73
343.03 K, 4990 kPa	1045.24
343.03 K, 80010 kPa	1337.58
343.05 K, 2090 kPa	997.14
362.95 K, 5000 kPa	921.91
362.95 K, 10000 kPa	1012.79
362.96 K, 20000 kPa	1101.23
362.97 K, 40000 kPa	1196.59
362.98 K, 60000 kPa	1257.2
362.99 K, 80000 kPa	1302.95

C=C(F)C(F)(F)F [2,3,3,3-tetrafluoro-1-propene]
Settings	mass density [kg/m3]
283.5 K, 3000 kPa	1155.63
283.5 K, 5000 kPa	1165.27
283.51 K, 1000 kPa	1145.11
283.51 K, 10000 kPa	1186.43
283.51 K, 15000 kPa	1204.63
283.52 K, 20000 kPa	1220.62
283.52 K, 25000 kPa	1235
283.53 K, 30000 kPa	1248.1
283.53 K, 40000 kPa	1271.31
283.53 K, 50000 kPa	1291.52
283.53 K, 60000 kPa	1309.52
283.53 K, 69990 kPa	1325.92
283.54 K, 79990 kPa	1340.69
283.54 K, 89990 kPa	1354.31
283.54 K, 99990 kPa	1367.01
293.42 K, 100000 kPa	1352.4
293.43 K, 1000 kPa	1111.44
293.43 K, 3000 kPa	1123.79
293.43 K, 5000 kPa	1134.97
293.43 K, 80000 kPa	1324.88
293.43 K, 89990 kPa	1339.25
293.44 K, 10000 kPa	1159.05
293.44 K, 15000 kPa	1179.37
293.44 K, 20000 kPa	1196.95
293.44 K, 70000 kPa	1309.56
293.45 K, 25000 kPa	1212.64
293.45 K, 30000 kPa	1226.8
293.45 K, 40000 kPa	1251.77
293.45 K, 50000 kPa	1273.28
293.45 K, 60000 kPa	1292.28
303.3 K, 1000 kPa	1077.2
303.3 K, 3000 kPa	1092.22
303.3 K, 5000 kPa	1105.38
303.3 K, 10000 kPa	1133.08
303.3 K, 20000 kPa	1175.21
303.3 K, 25000 kPa	1192.3
303.3 K, 30000 kPa	1207.61
303.3 K, 40000 kPa	1234.24
303.3 K, 50000 kPa	1257.07
303.3 K, 60000 kPa	1277.12
303.31 K, 15000 kPa	1155.81
303.31 K, 69990 kPa	1295.36
303.31 K, 80000 kPa	1311.51
303.31 K, 90000 kPa	1326.38
303.31 K, 99990 kPa	1340.07
313.3 K, 3000 kPa	1054.12
313.3 K, 5000 kPa	1070.05
313.3 K, 10000 kPa	1102.25
313.3 K, 15000 kPa	1127.81
313.31 K, 20000 kPa	1149.23
313.31 K, 25000 kPa	1167.84
313.31 K, 30000 kPa	1184.38
313.31 K, 79990 kPa	1294.04
313.31 K, 100000 kPa	1323.74
313.32 K, 40000 kPa	1212.87
313.32 K, 50000 kPa	1237.08
313.32 K, 60000 kPa	1258.24
313.32 K, 70000 kPa	1277.17
313.32 K, 90000 kPa	1309.49
323.16 K, 30000 kPa	1163.21
323.16 K, 80000 kPa	1279.1
323.16 K, 90000 kPa	1295.16
323.16 K, 100000 kPa	1309.92
323.17 K, 3000 kPa	1014.55
323.17 K, 5000 kPa	1034.38
323.17 K, 10000 kPa	1072.33
323.17 K, 15000 kPa	1101.29
323.17 K, 20000 kPa	1125.01
323.17 K, 25000 kPa	1145.33
323.17 K, 40000 kPa	1193.69
323.17 K, 50000 kPa	1219.3
323.17 K, 60000 kPa	1241.51
323.17 K, 69990 kPa	1261.48
333.08 K, 3000 kPa	970.09
333.08 K, 5000 kPa	995.64
333.08 K, 10000 kPa	1041.18
333.08 K, 15000 kPa	1074.07
333.08 K, 20000 kPa	1100.37
333.08 K, 25000 kPa	1122.55
333.08 K, 30000 kPa	1141.81
333.08 K, 40000 kPa	1174.38
333.08 K, 50000 kPa	1201.52
333.08 K, 60000 kPa	1224.88
333.08 K, 70000 kPa	1245.82
333.08 K, 80000 kPa	1264.16
333.08 K, 90000 kPa	1280.84
333.08 K, 99990 kPa	1296.14
343.03 K, 25000 kPa	1099.43
343.04 K, 30000 kPa	1120.26
343.04 K, 40000 kPa	1155.06
343.05 K, 50000 kPa	1183.7
343.05 K, 60000 kPa	1208.19
343.05 K, 70000 kPa	1230.04
343.05 K, 80000 kPa	1249.14
343.05 K, 90000 kPa	1266.4
343.06 K, 15000 kPa	1045.88
343.06 K, 20000 kPa	1075.15
343.06 K, 100000 kPa	1282.22
343.07 K, 3000 kPa	917.18
343.07 K, 5000 kPa	952.33
343.07 K, 10000 kPa	1008.02
353.02 K, 3000 kPa	849.05
353.02 K, 99990 kPa	1268.7
353.03 K, 5000 kPa	902.77
353.03 K, 10000 kPa	973.22
353.03 K, 15000 kPa	1016.73
353.03 K, 20000 kPa	1049.45
353.03 K, 25000 kPa	1075.98
353.03 K, 30000 kPa	1098.53
353.03 K, 40000 kPa	1135.71
353.03 K, 50000 kPa	1166.05
353.03 K, 60000 kPa	1191.81
353.03 K, 69990 kPa	1214.55
353.03 K, 79990 kPa	1234.41
353.03 K, 89990 kPa	1252.33
362.96 K, 5000 kPa	843.74
362.96 K, 10000 kPa	936.17
362.96 K, 15000 kPa	986.89
362.96 K, 20000 kPa	1023.49
362.96 K, 25000 kPa	1052.55
362.96 K, 30000 kPa	1076.97
362.96 K, 40000 kPa	1116.69
362.96 K, 50000 kPa	1148.71
362.96 K, 60000 kPa	1175.67
362.96 K, 70000 kPa	1199.47
362.96 K, 80000 kPa	1220.08
362.96 K, 89990 kPa	1238.55
362.96 K, 100000 kPa	1255.48
